US11931463B2, “All-in-one fixed-dose combination for treating Helicobacter pylori infection” (RedHill Biopharma Ltd., priority 2013, dated 2024)
Where two headings read alike, the source gives them in different places.

How the values were obtained:
[1] = cited from earlier work
[2] = cited from earlier work; remark: listed apart in the source
[3] = Assay and related substances under accelerated conditions 40° C./75% RH; assay type: physicochemical
[4] = In vitro dissolution assay, 900 ml 0.01 N HCl, 100 rpm, baskets apparatus; assay type: physicochemical
Protocol: (§1) In some embodiments, an average of no less than 80% of amoxicillin is released in 60 min at 100 rpm in a baskets apparatus (900 ml 0.01 N HCl, at 100 rpm in a baskets apparatus). In some embodiments, an average of 90%, 96%, and 97% of the amoxicillin is released in an in vitro dissolution assay at 20, 30, and 45 minutes, respectively.
as §1, with “75%” for “80%”, “rifabutin” for “amoxicillin”, “45” for “60”, “95, 97,” for “90%, 96%,”, “98%” for “97%”

[5] = clinical; settings: for concentration at 0.5 h / concentration at 1 h / concentration at 2 h / concentration at 3 h: both, human, in vivo
Protocol: A single center, randomized, single and multiple doses, open-label, 2-period, 2-sequence, crossover study was carried out on male and female volunteers.
A Phase I Open-Label, 2-Arm Crossover Study to Evaluate the Relative Bioavailability of the pharmaceutical composition, also herein as test formulation (Rifabutin/Amoxicillin/Omeprazole 12.5 mg/250 mg/10 mg) capsules given 3 times a day, every 8 hours, compared to the concomitant administration of the three drug substance components in fasted healthy volunteers (Table 13). Test formulation (Treatment-1) was analyzed in comparison to the pharmacokinetics of the reference drugs rifabutin, amoxicillin and omeprazole given concomitantly (Treatment-2) under fasting conditions.
Treatment-1: 4× Test formulation Amoxicillin, Rifabutin, Omeprazole 250 mg/12.5 mg/10 mg capsules (Test) given three times daily, in the morning, afternoon and evening, 8 hours apart, for a total daily oral dose of 3000 mg/150 mg/120 mg.
Treatment-2: 1× Mycobutin® 150 mg capsule (Reference-1)+2× Amoxicillin 500 mg capsule (Reference-2)+1× Prilosec® 40 mg delayed-release capsule (Reference-3) taken concomitantly each given three times daily, in the morning, afternoon and evening, 8 hours apart, for a total daily oral dose of 150 mg rifabutin/3000 mg amoxicillin/120 mg omeprazole.
Reference-1 Product, Dose and Mode of Administration: • Name: Mycobutin® • Dosage form/Route of administration: Capsule/Oral • Regimen: Single 150 mg dose (1×150 mg) given once in the morning, for a total daily oral dose of 150 mg.
Reference-2 Product, Dose and Mode of Administration: • Name: Amoxicillin • Dosage form/Route of administration: Capsule/Oral • Regimen: Single 1000 mg dose (2×500 mg) given three times daily, in the morning, afternoon and evening, 8 hours apart, for a total of a total daily oral dose of 3000 mg.
Reference-3 Product, Dose and Mode of Administration: • Name: Prilosec® • Dosage form/Route of administration: Delayed Release Capsule/Oral • Regimen: Single 40 mg dose (1×40 mg), given three times daily, in the morning, afternoon and evening, 8 hours apart, for a total of a total daily oral dose of 120 mg
Treatments: • Treatment-1: 4 capsules of the Test formulation was given three times daily, in the morning, afternoon and evening, 8 hours apart, for a total daily oral dose of 150 mg rifabutin/3000 mg amoxicillin/120 mg omeprazole) • Treatment-2: Reference-1 drug (Rifabutin) was given once in the morning together with 2 capsules of Reference-2 drug (amoxicillin) and 1 capsule of Reference-3 drug (Omeprazole). Each reference drug was given three times daily, in the morning, afternoon and evening, 8 hours apart, for a total daily oral dose of 150 mg rifabutin/3000 mg amoxicillin/120 mg omeprazole).
Single and multiple oral doses were administered under fasting conditions in each study period. The drug administrations were separated by a wash-out of 14 calendar days.
For each Treatment in each study period, 78 blood samples were collected on 26 occasions.
Main absorption and disposition parameters using a non-compartmental approach with a log-linear terminal phase assumption. Trapezoidal rule to estimate the area under the curve. The pharmacokinetic parameters for this study were to be Cmax, Tmax, Cmin, C24, Clast, Tlast, AUC0-24, AUC∞, Kel and T1/2el.
Statistical analysis of Tmax based on a non-parametric approach. Statistical analysis of all other pharmacokinetic parameters based on a parametric ANOVA model. […] ANOVA Model: • fixed factors: sequence, period, treatment • random factor: subject (nested within sequence) Safety: • Descriptive statistics.

[6] = cited from earlier work; remark: listed apart in the source
[7] = system: plasma proteins; settings: cited from earlier work
[8] = system: H. pylori; settings: cited from earlier work
[9] = clinical; settings: human, in vivo, 50 mg
[10] = single oral 1000 mg dose of amoxicillin capsules, fasting
[11] = single oral 150 mg dose of rifabutin capsules, fasting

Compound: 25-O-desacetylrifabutin
- plasma metabolite: parent area under the curve ratio ([1]; in vivo): 0.10

Compound: 31-hydroxyrifabutin
- plasma metabolite: parent area under the curve ratio ([1]; in vivo): 0.07

Compound: CC1(C)S[C@@H]2[C@H](NC(=O)[C@H](N)c3ccc(O)cc3)C(=O)N2[C@H]1C(=O)O [Amoxicillin]
- T1/2el ([2]; in vivo, po, 1000 mg): 1.15 h
- time to peak serum concentrations ([2]; in vivo, po): 1 to 2 h
- peak serum concentrations relative to equivalent dose of oral ampicillin ([2]; in vivo): 2-2.5 times
- stability in gastric acid ([2]; in vivo): stable in the presence of gastric acid
- Cmax [2, 10]: 14000 ng/mL
- Tmax [2, 10]: 1.65 h
- Related Substances, Total ([3]; T = 0): 2.21 % area
- Related Substances, Total ([3]; T = 1 month, 40° C./75% RH): 3.01 % area
- average released in in vitro dissolution assay ([4]; 20 minutes): 90%
- average released in in vitro dissolution assay ([4]; 30 minutes): 96%
- average released in in vitro dissolution assay ([4]; 45 minutes): 97%
- concentration at 0.5 h [5]: 2380 ng/mL
- concentration at 1 h [5]: 8920 ng/mL
- concentration at 2 h [5]: 14700 ng/mL
- concentration at 3 h [5]: 11300 ng/mL

Compound: COc1ccc2[nH]c([S+]([O-])Cc3ncc(C)c(OC)c3C)nc2c1 (centres unmarked) [Omeprazole]
- T1/2el ([6]; in vivo, po, 40 mg): 1 h
- drug absorbed from the gastrointestinal tract ([6]; in vivo, po): approximately 35%
- dose excreted in the feces ([6]; in vivo): 20%
- dose recovered as urinary metabolites ([6]; in vivo): 80%
- time to completion of absorption ([6]; in vivo): ≤ 4 h
- average half-life of the terminal phase ([6]; plasma concentration-time curve): approximately 40 minutes
- Tmax ([6]; single oral 40 mg dose of omeprazole delayed-release capsules, fasting): 1.75 h
- concentration at 0.5 h [5]: 85.8 ng/mL
- concentration at 1 h [5]: 613 ng/mL
- concentration at 2 h [5]: 828 ng/mL
- concentration at 3 h [5]: 466 ng/mL
- plasma protein binding [7]: about 95%

Compound: CO[C@H]1/C=C/O[C@@]2(C)Oc3c(C)c(O)c4c(c3C2=O)C2=NC3(CCN(CC(C)C)CC3)NC2=C(NC(=O)/C(C)=C\C=C\[C@H](C)[C@H](O)[C@@H](C)[C@@H](O)[C@@H](C)[C@H](OC(C)=O)[C@@H]1C)C4=O [Rifabutin]
- mean rate of H. pylori resistance ([8]; in general): 1.3%
- mean rate of H. pylori resistance ([8]; patients naïve to H. pylori eradication treatment): 0.6%
- Related Substances, Total ([3]; T = 0): 1.13 % area
- Related Substances, Total ([3]; T = 1 month, 40° C./75% RH): 2.11 % area
- mean systemic clearance ([1]; healthy adult volunteers, single oral dose): 0.69 (±0.32) L/hour/kg
- Cmax ([1]; in vivo, po, 150 mg): 188 ng/mL
- dose absorbed ([1]; in vivo, po): at least 53%
- time to peak plasma concentrations ([1]; in vivo, po): 2 to 4 h
- contribution of renal and of biliary excretion of unchanged drug to systemic clearance ([1]; in vivo): approximately 5%
- decrease of AUC following multiple dosing ([1]; in vivo): 38%
- steady-state trough levels (Cp, Cminss, 24-hour post dose) ([1]; in vivo): 50 to 65 ng/mL
- initial half-life ([1]; plasma elimination, biphasic): approximately 4 hours
- T1/2el [1, 11]: 40 h
- Tmax [1, 11]: 3 h
- average released in in vitro dissolution assay ([4]; 20 minutes): 95%
- average released in in vitro dissolution assay ([4]; 30 minutes): 97%
- average released in in vitro dissolution assay ([4]; 45 minutes): 98%
- extent of absorption of rifabutin, single 150 mg capsule relative to test formulation tid ([5]; 150 mg rifabutin over 24 hours in both treatments): 1.5 times
- concentration at 0.5 h [5]: 5.52 ng/mL
- concentration at 1 h [5]: 28.1 ng/mL
- concentration at 2 h [5]: 66.1 ng/mL
- concentration at 3 h [5]: 72.5 ng/mL
- Cmax [9]: ~63 ng/mL
- bound to plasma proteins ([7]; concentration range of 50 to 1000 ng/ml): About 85%
